Laboratory results taken from ChEMBL document CHEMBL3352134, “In silico and pharmacological screenings identify novel serine racemase inhibitors” (Bioorg Med Chem Lett, 2014).

Columns and labels:
Serine racemase [1] = molecular target: T1, Serine racemase (Homo sapiens, UniProt Q9GZT4); test: Binding affinity to serine recemase (unknown origin)
T1 sequence (Q9GZT4 whole entry): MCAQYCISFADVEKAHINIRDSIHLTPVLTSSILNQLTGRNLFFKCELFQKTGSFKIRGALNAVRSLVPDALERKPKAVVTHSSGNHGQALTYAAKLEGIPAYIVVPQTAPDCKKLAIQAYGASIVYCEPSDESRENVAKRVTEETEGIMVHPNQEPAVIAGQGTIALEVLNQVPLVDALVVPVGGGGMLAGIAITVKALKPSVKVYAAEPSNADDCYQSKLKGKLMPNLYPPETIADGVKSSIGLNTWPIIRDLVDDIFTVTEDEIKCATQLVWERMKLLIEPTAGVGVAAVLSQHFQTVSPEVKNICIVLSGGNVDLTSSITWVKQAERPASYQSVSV

Serine racemase [2] = molecular target: Serine racemase (Homo sapiens, UniProt Q9GZT4); test: Inhibition of full length human recombinant serine recemase C2DC6D mutant expressed in Escherichia coli BL21 (DE3) assessed as D-serine production after 10 mins by Saccharomyces cerevisiae Dsd1SC based D-serine detection assay
[3] = molecular target: T2, Serine racemase (Homo sapiens) (UniProt Q9GZT4); test: Inhibition of full length human recombinant serine recemase C2DC6D mutant expressed in Escherichia coli BL21 (DE3) assessed as D-serine production at 1 mM after 10 mins by Saccharomyces cerevisiae Dsd1SC based D-serine detection assay
T2 sequence (whole entry): T1 sequence (Q9GZT4 whole entry)

Row | Ki (Serine racemase [1]) [µM] | IC50 (Serine racemase [2]) [µM] | inhibition [3] [%] | SMILES
1 | 11 | – | – | N[C@H](C(=O)O)[C@@H](O)C(=O)O
2 | 366 | – | – | NCC(=O)O [GLYCINE]
3 | 33 | 1310 | 59 | O=C(O)CC(=O)O [MALONIC ACID]
